Measurements published in US11767310B2, “Nicotinamide RIPK1 inhibitors” (AbbVie Inc., priority 2021, dated 2023).
Read-outs that look alike come from different tables or passages of the source.

Experiments:
Assay in all cases: Kinase binding screen
Details in all cases: read-out: Percent Control at 100 nM Compound Concentration
FES = FES (Homo sapiens (Human), UniProt P07332)
MAP4K3 = MAP4K3 (Homo sapiens (Human), UniProt Q8IVH8)
TAOK2 = TAOK2 (Homo sapiens (Human), UniProt Q9UL54)
EPHA2 = EPHA2 (Homo sapiens (Human), UniProt P29317)
TAOK1 = TAOK1 (Homo sapiens (Human), UniProt Q7L7X3)
PIK3CA(Q546K) = PIK3CA(Q546K) (Homo sapiens (Human), UniProt P42336, Q546K)
CDC2L5 = CDC2L5 (Homo sapiens (Human), UniProt Q14004)
Excerpt: (§1) The screening method uses an immobilized ligand on a solid support, a DNA-tagged kinase, and a test compound. Test compounds that bind the kinase active site and directly (sterically) or indirectly (allosterically) prevent kinase binding to an immobilized ligand on a solid support will reduce the amount of kinase captured on the solid support. […] Screening “hits” are identified by measuring the amount of kinase captured in test compound versus control samples by using a quantitative, precise and ultra-sensitive qPCR method that detects the DNA label associated with the kinase. In a similar manner, dissociation constants (Kd) for test compound-kinase interactions are calculated by measuring the amount of kinase captured on the solid support as a function of the test compound concentration.
(§2) For most assays, kinase-tagged T7 phage strains were grown in parallel in 24-well blocks in an E. coli host derived from the BL21 strain. E. coli were grown to log-phase and infected with T7 phage from a frozen stock (multiplicity of infection=0.4) and incubated with shaking at 32° C. until lysis (90-150 minutes). The lysates were centrifuged (6,000×g) and filtered ([…]) to remove cell debris. The remaining kinases were produced in HEK-293 cells and subsequently tagged with DNA for qPCR detection. Streptavidin-coated magnetic beads were treated with biotinylated small molecule ligands for 30 minutes at room temperature to generate affinity resins for kinase assays. The liganded beads were blocked with excess biotin and washed with blocking buffer (SeaBlock (Pierce), 1% BSA, 0.05% Tween 20, 1 mM DTT) to remove unbound ligand and to reduce non-specific phage binding. […] Test compounds were prepared as 40× stocks in 100% DMSO and directly diluted into the assay. All reactions were performed in polypropylene 384-well plates in a final volume of 0.02 mL. […] The kinase concentration in the eluates was measured by qPCR.
(§3) The compounds were screened at 100 nM concentration, and results for the binding interactions are shown below in Table D as percent control, where lower numbers indicate stronger hits. The calculation for percent control is shown below. The negative control was DMSO (100% control), and a control compound was used as positive control (0% control).

PRP4 = PRP4 (Homo sapiens (Human), UniProt Q13523)
Excerpt: as §1, §2, §3

PFCDPK1(P.falciparum) = PFCDPK1(P.falciparum) (Plasmodium falciparum (isolate 3D7), UniProt P62344)
Excerpt: as §1, §2, §3

PFPK5(P.falciparum) = PFPK5(P.falciparum) (Plasmodium falciparum (isolate 3D7), UniProt P61075)
Excerpt: as §1, §2, §3

NEK5 = NEK5 (Homo sapiens (Human), UniProt Q6P3R8)
BLK = BLK (Homo sapiens (Human), UniProt P51451)
MET = MET (Homo sapiens (Human), UniProt P08581)
GRK2 = GRK2 (Homo sapiens (Human), UniProt P25098)
NEK6 = NEK6 (Homo sapiens (Human), UniProt Q9HC98)
CSNK1D = CSNK1D (Homo sapiens (Human), UniProt P48730)
EGFR(L858R,T790M) = EGFR(L858R,T790M) (Homo sapiens (Human), UniProt P00533, L858R/T790M)
IRAK1 = IRAK1 (Homo sapiens (Human), UniProt P51617)
TLK1 = TLK1 (Homo sapiens (Human), UniProt Q9UKI8)
PFTAIRE2 = PFTAIRE2 (Homo sapiens (Human), UniProt Q96Q40)
[1] = target: RSK2(Kin.Dom.2-C-terminal) (Homo sapiens (Human), UniProt P51812)
GRK4 = GRK4 (Homo sapiens (Human), UniProt P32298)
Sequence of GRK4 (P32298 whole entry): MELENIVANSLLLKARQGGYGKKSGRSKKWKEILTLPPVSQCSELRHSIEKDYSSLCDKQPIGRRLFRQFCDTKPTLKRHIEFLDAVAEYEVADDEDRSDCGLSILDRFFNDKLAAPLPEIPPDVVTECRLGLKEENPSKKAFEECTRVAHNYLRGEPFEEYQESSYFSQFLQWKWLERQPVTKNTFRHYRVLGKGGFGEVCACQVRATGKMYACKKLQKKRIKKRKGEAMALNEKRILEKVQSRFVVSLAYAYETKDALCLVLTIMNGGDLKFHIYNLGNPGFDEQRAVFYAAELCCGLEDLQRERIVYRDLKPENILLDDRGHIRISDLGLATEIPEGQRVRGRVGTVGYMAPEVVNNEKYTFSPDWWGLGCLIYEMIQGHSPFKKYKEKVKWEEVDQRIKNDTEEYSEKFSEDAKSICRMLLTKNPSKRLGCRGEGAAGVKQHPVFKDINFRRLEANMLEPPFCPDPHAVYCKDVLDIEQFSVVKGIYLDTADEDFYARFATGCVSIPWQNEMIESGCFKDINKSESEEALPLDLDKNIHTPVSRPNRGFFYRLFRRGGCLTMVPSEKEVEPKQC

Sequence of MAP4K3 (Q8IVH8 whole entry): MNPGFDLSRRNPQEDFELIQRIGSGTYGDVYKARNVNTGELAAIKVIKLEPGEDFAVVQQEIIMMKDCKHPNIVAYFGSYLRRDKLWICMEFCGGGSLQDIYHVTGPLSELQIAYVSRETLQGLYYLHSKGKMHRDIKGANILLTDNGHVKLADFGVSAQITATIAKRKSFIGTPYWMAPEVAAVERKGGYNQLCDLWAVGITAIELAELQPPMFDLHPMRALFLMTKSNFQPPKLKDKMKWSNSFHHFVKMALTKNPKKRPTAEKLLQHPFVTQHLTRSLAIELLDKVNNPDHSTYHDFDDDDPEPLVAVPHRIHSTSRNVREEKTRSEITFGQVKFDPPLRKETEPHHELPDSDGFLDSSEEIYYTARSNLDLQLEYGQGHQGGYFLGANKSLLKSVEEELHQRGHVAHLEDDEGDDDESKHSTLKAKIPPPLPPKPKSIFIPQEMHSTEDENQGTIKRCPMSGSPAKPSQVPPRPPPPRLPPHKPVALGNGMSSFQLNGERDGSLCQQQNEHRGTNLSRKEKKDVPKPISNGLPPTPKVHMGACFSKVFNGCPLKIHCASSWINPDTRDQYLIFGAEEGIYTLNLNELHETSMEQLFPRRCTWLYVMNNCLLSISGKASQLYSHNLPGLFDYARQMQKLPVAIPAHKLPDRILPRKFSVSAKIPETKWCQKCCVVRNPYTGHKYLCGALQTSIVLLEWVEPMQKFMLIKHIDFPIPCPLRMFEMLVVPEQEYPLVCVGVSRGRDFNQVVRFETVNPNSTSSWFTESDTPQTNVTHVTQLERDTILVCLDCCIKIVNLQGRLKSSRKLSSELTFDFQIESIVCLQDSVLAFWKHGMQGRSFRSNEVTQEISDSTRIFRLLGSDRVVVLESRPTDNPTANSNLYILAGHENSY
Sequence of TLK1 (Q9UKI8 whole entry): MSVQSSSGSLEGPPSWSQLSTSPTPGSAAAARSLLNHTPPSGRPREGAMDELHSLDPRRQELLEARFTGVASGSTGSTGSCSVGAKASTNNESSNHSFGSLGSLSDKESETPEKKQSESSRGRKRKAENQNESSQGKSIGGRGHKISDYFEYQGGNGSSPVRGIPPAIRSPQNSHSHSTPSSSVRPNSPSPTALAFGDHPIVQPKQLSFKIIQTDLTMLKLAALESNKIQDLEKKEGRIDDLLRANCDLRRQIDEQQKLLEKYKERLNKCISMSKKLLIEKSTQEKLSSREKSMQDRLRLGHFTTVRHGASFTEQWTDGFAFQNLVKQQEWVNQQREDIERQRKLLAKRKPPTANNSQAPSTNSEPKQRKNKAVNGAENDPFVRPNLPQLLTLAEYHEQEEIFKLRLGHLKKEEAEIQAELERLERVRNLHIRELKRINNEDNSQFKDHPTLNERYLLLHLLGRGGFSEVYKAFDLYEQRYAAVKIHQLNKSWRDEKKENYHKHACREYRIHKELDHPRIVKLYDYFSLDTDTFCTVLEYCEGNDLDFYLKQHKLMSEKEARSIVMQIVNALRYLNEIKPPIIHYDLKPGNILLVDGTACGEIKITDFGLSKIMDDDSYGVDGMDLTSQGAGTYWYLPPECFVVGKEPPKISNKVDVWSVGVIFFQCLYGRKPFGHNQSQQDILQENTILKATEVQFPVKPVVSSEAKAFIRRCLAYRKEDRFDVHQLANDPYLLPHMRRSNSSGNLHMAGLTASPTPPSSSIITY
Sequence of GRK2 (P25098 whole entry): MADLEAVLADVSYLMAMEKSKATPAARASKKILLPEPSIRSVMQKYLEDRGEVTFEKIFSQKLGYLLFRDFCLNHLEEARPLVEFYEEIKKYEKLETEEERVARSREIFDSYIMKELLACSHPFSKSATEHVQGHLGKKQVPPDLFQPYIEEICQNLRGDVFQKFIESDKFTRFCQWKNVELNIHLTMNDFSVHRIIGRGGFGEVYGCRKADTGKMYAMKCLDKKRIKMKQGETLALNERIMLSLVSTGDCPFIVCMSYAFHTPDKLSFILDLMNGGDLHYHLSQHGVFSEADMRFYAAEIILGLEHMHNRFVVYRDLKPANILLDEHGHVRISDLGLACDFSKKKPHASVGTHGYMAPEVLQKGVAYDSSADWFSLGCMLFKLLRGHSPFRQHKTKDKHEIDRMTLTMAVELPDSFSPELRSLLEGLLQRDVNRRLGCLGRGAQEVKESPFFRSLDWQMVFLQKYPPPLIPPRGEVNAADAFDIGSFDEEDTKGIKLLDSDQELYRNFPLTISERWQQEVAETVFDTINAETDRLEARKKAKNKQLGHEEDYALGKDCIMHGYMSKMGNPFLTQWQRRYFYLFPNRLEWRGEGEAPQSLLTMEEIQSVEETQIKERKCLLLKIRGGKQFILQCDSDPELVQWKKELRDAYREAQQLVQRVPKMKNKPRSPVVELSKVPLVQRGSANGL
Sequence of CSNK1D (P48730 whole entry): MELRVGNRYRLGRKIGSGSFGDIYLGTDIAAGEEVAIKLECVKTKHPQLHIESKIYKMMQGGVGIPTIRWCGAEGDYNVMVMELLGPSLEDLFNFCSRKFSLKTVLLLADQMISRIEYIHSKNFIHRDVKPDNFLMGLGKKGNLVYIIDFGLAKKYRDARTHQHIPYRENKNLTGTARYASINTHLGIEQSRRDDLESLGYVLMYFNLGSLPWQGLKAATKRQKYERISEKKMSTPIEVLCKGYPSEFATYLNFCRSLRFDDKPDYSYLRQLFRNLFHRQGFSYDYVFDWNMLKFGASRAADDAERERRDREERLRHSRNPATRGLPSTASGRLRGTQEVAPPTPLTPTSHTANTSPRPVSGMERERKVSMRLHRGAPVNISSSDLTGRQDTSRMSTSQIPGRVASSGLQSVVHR
Sequence of PFTAIRE2 (Q96Q40 whole entry): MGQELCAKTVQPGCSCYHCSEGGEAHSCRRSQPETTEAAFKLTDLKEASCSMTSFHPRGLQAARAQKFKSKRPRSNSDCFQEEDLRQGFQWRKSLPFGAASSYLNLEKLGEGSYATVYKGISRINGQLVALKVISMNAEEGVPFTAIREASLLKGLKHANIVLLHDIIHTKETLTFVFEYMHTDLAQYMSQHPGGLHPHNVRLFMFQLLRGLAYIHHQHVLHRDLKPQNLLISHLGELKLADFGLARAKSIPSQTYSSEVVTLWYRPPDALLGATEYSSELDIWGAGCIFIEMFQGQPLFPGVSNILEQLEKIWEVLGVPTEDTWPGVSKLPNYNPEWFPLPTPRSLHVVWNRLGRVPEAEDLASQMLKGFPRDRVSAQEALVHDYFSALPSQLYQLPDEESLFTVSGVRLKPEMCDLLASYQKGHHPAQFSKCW
Sequence of EGFR(L858R,T790M) (P00533 25-1210 T790M/L858R): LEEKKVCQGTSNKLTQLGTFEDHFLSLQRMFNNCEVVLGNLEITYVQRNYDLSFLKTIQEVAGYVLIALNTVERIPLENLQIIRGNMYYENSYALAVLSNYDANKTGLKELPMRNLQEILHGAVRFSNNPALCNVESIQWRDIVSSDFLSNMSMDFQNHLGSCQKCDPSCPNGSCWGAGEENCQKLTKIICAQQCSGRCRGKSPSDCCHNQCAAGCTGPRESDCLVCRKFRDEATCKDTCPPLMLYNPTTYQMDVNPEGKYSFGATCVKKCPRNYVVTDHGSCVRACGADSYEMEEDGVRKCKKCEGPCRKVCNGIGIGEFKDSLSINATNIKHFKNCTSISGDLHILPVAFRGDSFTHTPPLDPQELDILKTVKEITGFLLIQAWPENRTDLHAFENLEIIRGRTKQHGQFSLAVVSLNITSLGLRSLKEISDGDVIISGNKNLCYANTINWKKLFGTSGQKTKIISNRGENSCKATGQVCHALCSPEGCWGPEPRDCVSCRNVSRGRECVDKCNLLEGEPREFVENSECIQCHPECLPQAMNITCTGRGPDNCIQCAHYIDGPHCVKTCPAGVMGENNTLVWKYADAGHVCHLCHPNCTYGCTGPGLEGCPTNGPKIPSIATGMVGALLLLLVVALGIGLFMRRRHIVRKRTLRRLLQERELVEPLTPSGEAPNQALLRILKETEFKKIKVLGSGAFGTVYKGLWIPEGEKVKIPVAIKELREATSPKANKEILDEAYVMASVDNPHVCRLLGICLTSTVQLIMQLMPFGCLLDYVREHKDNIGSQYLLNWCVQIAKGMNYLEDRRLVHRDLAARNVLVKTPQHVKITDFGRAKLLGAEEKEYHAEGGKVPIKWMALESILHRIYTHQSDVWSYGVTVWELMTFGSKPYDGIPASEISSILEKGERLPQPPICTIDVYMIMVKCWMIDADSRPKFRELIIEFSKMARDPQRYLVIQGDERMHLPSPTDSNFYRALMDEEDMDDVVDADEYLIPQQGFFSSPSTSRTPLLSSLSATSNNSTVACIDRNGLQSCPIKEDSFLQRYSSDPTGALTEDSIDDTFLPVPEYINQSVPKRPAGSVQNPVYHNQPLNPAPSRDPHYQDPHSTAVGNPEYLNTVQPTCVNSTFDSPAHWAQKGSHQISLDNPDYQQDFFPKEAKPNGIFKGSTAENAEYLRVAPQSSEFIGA

## CN(C[C@@H](O)Cc1ccccc1)C(=O)c1cncc(C#Cc2cnn(C(F)F)c2)c1 [Example 2, (S)-5-((1-(difluoromethyl)-1H-pyrazol-4-yl)ethynyl)-N-(2-hydroxy-3-phenylpropyl)-N-methylnicotinamide]
FES; FES
  remaining activity at 0.1 µM: 100%
MAP4K3; MAP4K3
  remaining activity at 0.1 µM: 100%
TAOK2; TAOK2
  remaining activity at 0.1 µM: 84%
EPHA2; EPHA2
  remaining activity at 0.1 µM: 100%
TAOK1; TAOK1
  remaining activity at 0.1 µM: 100%
PIK3CA(Q546K); PIK3CA(Q546K)
  remaining activity at 0.1 µM: 96%
CDC2L5
  remaining activity at 0.1 µM: 100%
PRP4
  remaining activity at 0.1 µM: 89%
PFCDPK1(P.falciparum)
  remaining activity at 0.1 µM: 95%
PFPK5(P.falciparum)
  remaining activity at 0.1 µM: 90%
NEK5; NEK5
  remaining activity at 0.1 µM: 100%
BLK; BLK
  remaining activity at 0.1 µM: 85%
MET; MET
  remaining activity at 0.1 µM: 100%
GRK2; GRK2
  remaining activity at 0.1 µM: 96%
NEK6; NEK6
  remaining activity at 0.1 µM: 100%
CSNK1D; CSNK1D
  remaining activity at 0.1 µM: 100%
EGFR(L858R,T790M); EGFR(L858R,T790M)
  remaining activity at 0.1 µM: 83%
IRAK1; IRAK1
  remaining activity at 0.1 µM: 91%
TLK1; TLK1
  remaining activity at 0.1 µM: 100%
PFTAIRE2; PFTAIRE2
  remaining activity at 0.1 µM: 100%
[1]; RSK2(Kin.Dom.2-C-terminal)
  remaining activity at 0.1 µM: 100%
GRK4; GRK4
  remaining activity at 0.1 µM: 100%

## CN(C[C@H](Cc1ccccc1)OP(=O)(O)O)C(=O)c1cncc(C#Cc2cnn(C(F)F)c2)c1 [Example 19, (S)-1-(5-((1-(difluoromethyl)-1H-pyrazol-4-yl)ethynyl)-N-methylnicotinamido)-3-phenylpropan-2-yl dihydrogen phosphate]
FES
  remaining activity at 0.1 µM: 100%
MAP4K3
  remaining activity at 0.1 µM: 100%
TAOK2
  remaining activity at 0.1 µM: 77%
EPHA2
  remaining activity at 0.1 µM: 100%
TAOK1
  remaining activity at 0.1 µM: 100%
PIK3CA(Q546K)
  remaining activity at 0.1 µM: 88%
CDC2L5
  remaining activity at 0.1 µM: 100%
PRP4
  remaining activity at 0.1 µM: 82%
PFCDPK1(P.falciparum)
  remaining activity at 0.1 µM: 96%
PFPK5(P.falciparum)
  remaining activity at 0.1 µM: 100%
NEK5
  remaining activity at 0.1 µM: 94%
BLK
  remaining activity at 0.1 µM: 96%
MET
  remaining activity at 0.1 µM: 100%
GRK2
  remaining activity at 0.1 µM: 79%
NEK6
  remaining activity at 0.1 µM: 100%
CSNK1D
  remaining activity at 0.1 µM: 100%
EGFR(L858R,T790M)
  remaining activity at 0.1 µM: 94%
IRAK1
  remaining activity at 0.1 µM: 86%
TLK1
  remaining activity at 0.1 µM: 100%
PFTAIRE2
  remaining activity at 0.1 µM: 100%
[1]
  remaining activity at 0.1 µM: 100%
GRK4
  remaining activity at 0.1 µM: 100%
